Results from patent US20260325538A1, “THERAPY” (priority 2023, published 2026).

System: Klebsiella pneumoniae Kpn St147 (NDM-1 and KPC-2)
Assay: MIC determination of cefepime with zinc chelator and avibactam (checkerboard, broth microdilution)
Assay type: cell-based
Procedure: Antimicrobial susceptibility testing (AST) by broth microdilution was performed according to The European Committee on Antimicrobial Susceptibility Testing. Reading guide for broth microdilution. Version 4.0, 2022 (see: http://www.eucast.org).
Checkerboard 96-well plates (Corning 3788) were made by conducting serial two-fold dilutions of cefepime in cation-adjusted Mueller Hinton II broth (caMHB; Thermo Scientific, T3462), in columns across the microtiter plate (64-0.03 μg/ml). Additionally, avibactam was added to rows 3 to 8 in concentrations of 64, 16, 8, 4, 1 and 0.25 μg/ml, respectively. The zinc chelator was added to the wells of the plate, where applicable. Three plates were made per experiment, one without the zinc chelator (plate 1), one with 16 μg/ml of the zinc chelator (plate 2) and one with 32 μg/ml of the zinc chelator (plate 3). The first row in all plates was used as a positive control for cefepime only, and the second row included the zinc chelator in addition to cefepime (no avibactam added to rows 1 or 2). The zinc chelator was added at the indicated concentration, to rows 3-8 of plates 2 and 3.
The effect of the combination of zinc chelator/FEP/avibactam was tested on a clinically isolated Klebsiella pneumoniae Kpn St147 actively constitutionally expressing the two resistance mechanisms NDM-1 and KPC-2 simultaneously. As a negative control, bacteria+FEP was tested alone. As a positive control, bacteria+FEP+zinc chelator was used. In Tables 1 and 2, concentrations (μg/ml) of FEP are given in the top row left to right and avibactam concentrations (μg/ml) are given top to bottom in column 1.
The fractional inhibitory concentration (FIC) is defined as the concentration that kills when used in combination with another agent divided by the concentration that has the same effect when used alone. The FIC index (FICI) for the combination of two agents is the sum of their individual FIC values. […] The European Committee for Antimicrobial Susceptibility Testing (EUCAST) of the European Society of Clinical Microbiology and Infectious Diseases (ESCMID) 2000 adopts the following definitions to determine the susceptibility of bacteria to an antimicrobial agent (see EUCAST Definitive Document E. Def 1.2: Terminology relating to methods for the determination of susceptibility of bacteria to antimicrobial agents. Clin. Microbiol. Infect. 2000; 6(9): 503-508): • FICI value≤0.5; synergy • 0.5<FICI value≤1; additive effect • 1<FICI value≤2; indifferent effect • FICI≥2; antagonistic effect
To test for synergy, all data were subjected to the following formula in which A=zinc chelator; B=cefepime; and C=avibactam:
ΣFICI=MICA(combination)/MICA (alone)+MICB(combination)/MICB (alone)+MICC(combination)/MICC (alone)

Compound: CN(C[C@H](O)[C@@H](O)[C@H](O)[C@H](O)CO)C(=O)c1ccc(CN(Cc2ccccn2)Cc2ccccn2)nc1 [zinc chelator]
- FICI Zinc Chelator (zinc chelator 8 μg/mL, with FEP and avibactam): 0.004
- amplification of the inhibitory effect (zinc chelator at 16 μg/ml, with cefepime and avibactam): about 16 fold
